The source of these data is patent US4673684A, “Amide derivatives and 5-lipoxygenase inhibitors containing the same as an active ingredient” (Terumo Corporation, priority 1984, dated 1987).

SMILES strings stand for the structures. pIC50: −log10 of the molar value.

The first assay addresses T1, 5-lipoxygenase (Mus musculus, UniProt P48999).
T1 construct: The supernatant is used as a 5-lipogenase enzyme solution; endogenous in cells
T1 sequence (P48999 1-674): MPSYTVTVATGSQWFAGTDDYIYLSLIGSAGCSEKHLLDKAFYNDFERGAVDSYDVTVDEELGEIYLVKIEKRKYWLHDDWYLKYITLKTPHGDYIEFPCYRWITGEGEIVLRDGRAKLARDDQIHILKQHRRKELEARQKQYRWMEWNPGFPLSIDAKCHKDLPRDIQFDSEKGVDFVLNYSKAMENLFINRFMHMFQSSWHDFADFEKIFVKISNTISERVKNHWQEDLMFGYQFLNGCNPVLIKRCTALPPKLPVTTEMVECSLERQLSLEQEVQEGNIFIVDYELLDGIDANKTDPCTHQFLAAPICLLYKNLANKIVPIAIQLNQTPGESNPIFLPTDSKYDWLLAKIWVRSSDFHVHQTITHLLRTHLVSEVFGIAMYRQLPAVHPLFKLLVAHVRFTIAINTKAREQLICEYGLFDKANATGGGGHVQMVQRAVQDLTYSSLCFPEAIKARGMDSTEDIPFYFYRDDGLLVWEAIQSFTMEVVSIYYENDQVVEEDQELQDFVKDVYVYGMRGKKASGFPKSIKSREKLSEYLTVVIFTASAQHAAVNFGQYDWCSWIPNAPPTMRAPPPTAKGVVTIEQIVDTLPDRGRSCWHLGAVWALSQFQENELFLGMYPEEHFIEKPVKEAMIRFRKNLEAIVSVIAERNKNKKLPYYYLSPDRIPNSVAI
The assay can be described thus: 5-Lipoxygenase-inhibiting Activity (decrease in 5-HETE and LTB4 formed from radiolabelled arachidonic acid, enzyme solution from mouse mastcytoma cells P-815). Format: biochemical.
Conditions: not given
As for the experimental part:
Mouse mastcytoma cells P-815 are diluted in a culture solution, containing 90% Eagle Basic Medium (manufactured by Gibco Laboratories) to 5×10^4 cells/ml. The diluted solution is cultivated with shaking in air at 37° C. for 48 hours. Then, the culture solution is cooled with ice and centrifuged to collect the cells. The cells are suspended in a phosphate buffer solution at pH 7.4 at a concentration of 2×10^7 cells/ml. The suspension is treated in a ultrasonic cell disintegrater and then centrifuged at 10,000 r.p.m. for 10 min. The supernatant is used as a 5-lipogenase enzyme solution. In test tubes are placed 20 μl of radiolabelled arachidonic acid ([…]), indomethacin (2×10^-8 mol) and an amide derivative to be tested, respectively. To each of the test tubes are added 0.45 ml of a phosphate buffer solution, 0.45 ml of the above-prepared suspension, 0.45 ml of the above-prepared enzyme solution and 0.1 ml of 8 mM CaCl2 (calcium chloride). The mixture is reacted at 37° C. for 5 min. After cooled with ice, 60 μl of 1N-HCl (hydrochloric acid is added to the reaction mixture, which is then extracted with 8 ml of ethyl acetate. The extract is concentrated, and the concentrate is developed by spotting on a silica gel thin layer plate (Merck 60F 254). Measurement of the inhibitory activity is made by collecting fractions corresponding to lipoxygenase products 5-HETE (5(s)-hydroxy-6,8,11,14-eicosatetraenic acid) and LTB4 (leucotriene B4) and determining the radioactivity by a liquid scintillation counter. The lipoxygenase inhibiting activity is determined by decrease in the amount of the above-mentioned 5-lipoxygenaseproducts. […] 50% inhibitory concentration or 30% inhibitory concentration as indicated in the table means the concentration of an amide derivative required for reducing the amount of the above-mentioned 5-lipoxygenase products (5-HETE and LTB4) to 50% or 30% of the amount when the amount of 5-HETE and LTB4 produced in the absenced of the amide derivative is 100%.
For the molecule `COc1cc(/C=C/C=C/C(=O)N2CCN(CCOC(c3ccccc3)c3ccccc3)CC2)ccc1O` [Example 89, N-[5-(3-methoxy-4-hydroxyphenyl)-2,4-pentadienoyl]-N'-(2-benzhydroxyethyl)piperazine], the pIC50 is 7.22.

The same assay, now with this note: 5-HETE and LTB4 formation; mouse mastcytoma P-815 enzyme solution; 37° C., 5 min; pH 7.4; with indomethacin; read-out: 50% Inhibitory concentration IC50.
Consider `COc1cc(/C=C/C(=O)NCCCCN2CCC(OC(c3ccccc3)c3ccccc3)CC2)ccc1O` [Example 124, 1-[4-[3-(3-methoxy-4-hydroxyphenyl)-2-propenoyl]aminobutyl]-4-benzhydroxypiperidine], for which the pIC50 was 6.70.
Same read-out and setting: next, `COc1cc(/C=C/C=C/C(=O)NCCn2cnc3c2c(=O)n(C)c(=O)n3C)cc(OC)c1OC` [Example 95]: 5.05.
Same read-out and setting: next, `O=C(/C=C/C=C/c1ccc(O)c(O)c1)Nc1ccc(O)cc1` [Example 25, N-5-(3,4-dihydroxyphenyl)-2,4-pentadienoylaminophenol]: 7.10; `COc1cc(/C=C/C=C/C(=O)NCc2c(COC(=O)c3ccc(C)cc3)cnc(C)c2O)cc(OC)c1OC(=O)c1ccc(C)cc1` [Example 58, 4-{5-(3,5-dimethoxy-4-toluoxyphenyl)-2,4-pentadienoyl}aminomethyl-3-hydroxy-2methyl-5-toluoxymethylpyridine]: 5.52; `O=C(/C=C/c1ccc(O)c(O)c1)NCCCCNC(=O)/C=C/c1ccc(O)c(O)c1` [Example 7, N,N'-bis-[(3,4-dihydroxyphenyl)-2-propenoyl]-1,4-diaminobutane]: 6.30.
Same read-out and setting: as for `O=C(/C=C/c1ccc(O)c(O)c1)NCCN1CCN(C(c2ccccc2)c2ccccc2)CC1` [Example 9, N-benzhydryl-N'-[2-{3-(3,4-dihydroxyphenyl)-2-propenoyl}-aminoethyl]piperazine], the figure is 7.00; as for `COc1cc(/C=C/C=C/C(=O)NCc2c(CO)cnc(C)c2O)cc(OC)c1O` [Example 56, 4-[5-(3,5-dimethoxy-4-hydroxyphenyl)-2,4-pentadineoyl]aminomethyl-3-hydroxy-5-hydroxymethyl-2-methylpyridine], 6.00.
For `COc1cc(/C=C/C=C/C(=O)NCCCN2CCC(OC(c3ccccc3)c3ccccc3)CC2)ccc1O` [Example 131], the pIC50 was 8.15.
The same measure, in the same setting: as for `COc1cc(/C=C/C(=O)NCCOC(c2ccccc2)c2ccccc2)cc(OC)c1O` [Example 81, 2-[3-(3,5-dimethoxy-4-hydroxy]phenyl-2-propenoyl) aminoethyl benzhydryl ether], the figure is 7.30; as for `COc1ccc(/C=C/C=C/C(=O)NCCCCN2CCN(C(c3ccccc3)c3ccccc3)CC2)cc1OC` [Example 93], 5.52; as for `COc1cc(/C=C/C=C/C(=O)N2CCN(CCOC(C)(c3ccccc3)c3ccc(Cl)cc3)CC2)cc(OC)c1O` (stereo not shown) [Example 113, N-[5-(3,5-dimethoxy-4-hydroxyphenyl]-2,4-pentadienoyl]-N'-[2-[1-phenyl-1-(p-chlorophenyl)ethoxy]ethyl]piperazine], 7.70.
The same measure, in the same setting: next, `COc1cc(/C=C/C=C/C(=O)NCc2c(CO)cnc(C)c2O)cc(OC)c1OC` [Example 60, 4-[5-(3,4,5-trimethoxyphenyl)-2,4-pentadienoyl]aminomethyl-3-hydroxy-5-hydroxymethyl-2-methylpyridine]: 4.00; `COc1ccc(/C=C/C(=O)NCCn2cnc3c2c(=O)n(C)c(=O)n3C)cc1OC` [Example 75, 7-[2-[3-(3,4-dimethoxyphenyl) -2-porpenoyl]aminoethyl]theophylline]: 4.70.
`CC/C=C\C/C=C\C/C=C\CCCCCCCC(=O)NCCCCNC(=O)/C=C/C=C/c1ccc(O)c(O)c1` [Example 23, N-5-(3,4-dihydroxyphenyl)2,4-pentadienoyl-N'-9,12,15-octadecatrienoyl-1,4-diaminobutane]: the pIC50 is 7.70.
As to `COc1cc(/C=C/C=C/C(=O)NCCCOC(c2ccccc2)c2ccccc2)ccc1O` [Example 92, 3-[5-[3-methoxy-4-hydroxyphenyl)-2,4-pentadienoyl]aminopropyl benzhydryl ether], the pIC50 is 7.05.
